According to article PMC12925725, “A potent nonapeptide inhibitor for the CXCL12/HMGB1 heterocomplex: A computational and experimental approach” (Computational and Structural Biotechnology Journal, 2025):

Tests used:
Solubility in PBS buffer = format: physicochemical; details: compared with HBP08–2
HMGB1-BoxB [1] = target: T1, HMGB1-BoxB (Homo sapiens, UniProt P09429); assay: Microscale thermophoresis (MST) binding to HMGB1-BoxB; details: 10 nM His-tag RED-tris-NTA labelled protein, PBS-T 0.05 % Tween 20, at least 40 min room temperature, 25 °C
T1 construct: His-tagged HMGB1-BoxB, HMGB1-BoxA, and full length HMGB1 proteins were produced at the Protein Facility; made in house
T1 sequence (P09429 95-163 limits assumed): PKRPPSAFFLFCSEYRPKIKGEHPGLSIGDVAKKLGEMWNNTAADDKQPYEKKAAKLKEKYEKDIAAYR
Experimental: (§1) His-tagged HMGB1-BoxB, HMGB1-BoxA, and full length HMGB1 proteins were produced at the Protein Facility of the Institute for Research in Biomedicine as previously described, [17], and stored in phosphate-buffered saline (PBS; product No. D8537, Sigma Aldrich, Saint Louis, USA).
(§2) Target proteins were fluorescently-labeled using the specific His-Tag Labeling Kit RED-tris-NTA 2nd Generation of NanoTemper Technologies (Product No. MO-L018), according to manufacturer instructions. A fixed 10 nM concentration of labeled target protein was mixed with sixteen 1:1 serial dilutions of the ligand peptide (see Supplementary Materials, Table S4 for the details about the concentration ranges used for the peptides). Both protein and peptide were dissolved in PBS-T buffer (0.05 % Tween™ 20, NanoTemper Technologies), and incubated for at least 40 min at room temperature. […] Finally, the data were processed by employing the dedicated MO.Affinity Analysis software v2.3 (NanoTemper Technologies GmbH, München, Germany) and the Kd values were determined based on concentration-dependent changes in normalized fluorescence (Fnorm), while the figures were generated using GraphPad Prism software v8.0.2 (GraphPad, Boston, USA). […]

[2] = test system: murine CXCR4 + 300.19 PreB cell line; assay: Peptide toxicity on murine CXCR4+ 300.19 PreB cells (AnnexinV-FITC / propidium iodide, flow cytometry); format: cell-based; details: 1 μM or 10 μM, 2 or 4 hours
Experimental: (§3) After incubation, cells were stained using AnnexinV-FITC and propidium iodide following the manufacturer’s instructions, and cell viability was analyzed by ﬂow cytometry in comparison to the untreated control.

[3] = target: T2, CXCL12/HMGB1 heterocomplex (Homo sapiens, UniProt P09429); assay: In vitro chemotaxis of human monocytes in response to the CXCL12/HMGB1 heterocomplex (Boyden chamber); format: cell-based; details: 1 nM CXCL12 + 300 nM HMGB1, peptide 0.1-10 μM, 90 min, four independent experiments, read-out: IC50, inhibition of monocyte migration in response to the CXCL12/HMGB1 heterocomplex
T2 construct: His-tagged HMGB1-BoxB, HMGB1-BoxA, and full length HMGB1 proteins were produced; His-tag; made in house
T2 sequence (P09429 1-215): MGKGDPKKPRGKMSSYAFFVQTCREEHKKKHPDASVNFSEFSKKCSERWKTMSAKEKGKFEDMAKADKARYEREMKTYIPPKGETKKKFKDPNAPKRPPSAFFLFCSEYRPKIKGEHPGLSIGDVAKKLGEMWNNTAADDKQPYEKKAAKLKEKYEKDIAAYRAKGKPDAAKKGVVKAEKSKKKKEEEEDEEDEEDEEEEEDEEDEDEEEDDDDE
Experimental: The murine 300.19 PreB cell line, stably transfected with the human CXCR4 [47], was cultured under standard culture conditions (5 % CO2, […], 37 °C) in RPMI-1640, supplemented with 10 % Fetal Bovine Serum, 1x non-essential amino acids, 1 mM Sodium pyruvate, 20 mM GlutaMAX, 50 μM β-Mercaptoethanol, 50 U/mL Penicillin and 50 μg/mL Streptomycin (GIBCO). Human monocytes were freshly isolated from buffy-coats obtained by spontaneous donation from healthy individuals (Central Laboratory of Swiss Red Cross, Basel, Switzerland, and Centro Trasfusionale Lugano, Switzerland, Canton Ticino Ethical Committee approval CE3428), and isolated by positive selection using CD14 microbeads (Miltenyi Biotec), as previously described.
In vitro cell migration of CXCR4 + murine 300.19 PreB cells and of freshly isolated human monocytes was performed using Boyden chambers equipped with 5 μm pore membranes, as previously described. Briefly, cells were diluted at 10^6 cell/mL in RPMI 1640, supplemented with 20 mM Hepes, pH 7.4, and 1 % pasteurized plasma protein solution, and allowed to migrate for 90 min in response to different stimuli under standard conditions (5 % CO2, […], 37 °C). CXCL12 was used at 1 nM, 10 nM or 100 nM. The CXCL12/HMGB1 heterocomplex was formed by combining 1 nM CXCL12 with 300 nM HMGB1.

human monocytes = assay: Peptide toxicity on human monocytes (AnnexinV-FITC / propidium iodide, flow cytometry); format: cell-based; details: 1 μM or 10 μM, 2 or 4 hours
Experimental: as §3

HMGB1-BoxA [4] = target: T3, HMGB1-BoxA (Homo sapiens, UniProt P09429); assay: Microscale thermophoresis (MST) binding to HMGB1-BoxA; details: 10 nM labelled protein, PBS-T 0.05 % Tween 20, at least 40 min room temperature, 25 °C
T3 construct: His-tagged HMGB1-BoxB, HMGB1-BoxA, and full length HMGB1 proteins were produced at the Protein Facility; made in house
T3 sequence (P09429 9-79 limits assumed): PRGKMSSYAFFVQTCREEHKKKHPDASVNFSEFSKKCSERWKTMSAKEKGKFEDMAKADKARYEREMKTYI
Experimental: as §1, §2

HMGB1-BoxB [5] = assay: MST; 10 nM target protein labelled on its His tag (RED-tris-NTA) mixed with sixteen 1:1 serial dilutions of the peptide; PBS-T (0.05 % Tween 20); incubated at least 40 min at room temperature; 25 °C; Monolith NT.115 Pico, excitation 20 %, MST power 40 %
HMGB1-BoxA [6] = target: T4, HMGB1-BoxA (RED-tris-NTA dye on the His tag (His-Tag Labeling Kit RED-tris-NTA 2nd Generation) in the MST); assay: as above; details: both partners purified
T4 chain: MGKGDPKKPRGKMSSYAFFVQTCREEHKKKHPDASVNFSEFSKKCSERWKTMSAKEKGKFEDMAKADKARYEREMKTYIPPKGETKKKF

[7] = target: T5, High Mobility Group Box 1 (HMGB1), full length (UniProt P09429 1-215, RED-tris-NTA dye on the His tag (His-Tag Labeling Kit RED-tris-NTA 2nd Generation) in the MST); assay: as above; details: both partners purified
T5 construct: HMGB1, full length; also called recombinant HMGB1; source: produced at the Protein Facility of the Institute for Research in Biomedicine as previously described
T5 sequence (looked up): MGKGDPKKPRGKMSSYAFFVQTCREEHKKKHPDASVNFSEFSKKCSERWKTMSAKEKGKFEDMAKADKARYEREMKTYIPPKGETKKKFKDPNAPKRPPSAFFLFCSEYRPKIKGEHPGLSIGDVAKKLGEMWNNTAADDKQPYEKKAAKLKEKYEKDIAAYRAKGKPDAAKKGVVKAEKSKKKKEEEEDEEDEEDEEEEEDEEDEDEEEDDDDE

CC[C@H](C)[C@H](NC(=O)[C@H](Cc1c[nH]c2ccccc12)NC(=O)[C@H](CCSC)NC(=O)[C@H](CCSC)NC(=O)[C@H](Cc1ccc(O)cc1)NC(=O)[C@H](Cc1c[nH]cn1)NC(=O)[C@H](CCCNC(=N)N)NC(=O)[C@@H]1CCCN1)C(=O)N[C@@H](Cc1c[nH]cn1)C(=O)O [HBP08–3]
solubility in PBS buffer (Solubility in PBS buffer): lower solubility | Kd (HMGB1-BoxB [1]): 15.3 ± 1.9 nM

CC[C@H](C)[C@H](NC(=O)[C@H](Cc1c[nH]c2ccccc12)NC(=O)[C@H](CCSC)NC(=O)[C@H](CCC(N)=O)NC(=O)[C@H](Cc1ccc(O)cc1)NC(=O)[C@H](Cc1c[nH]cn1)NC(=O)[C@H](CCCNC(=N)N)NC(=O)[C@@H]1CCCN1)C(=O)N[C@@H](Cc1c[nH]cn1)C(=O)O [HBP08–2]
toxicity on murine CXCR4+ 300.19 PreB cells [2]: did not exhibit toxicity | IC50 [3]: 3310 nM | toxicity on human monocytes (human monocytes): did not exhibit toxicity | Kd (HMGB1-BoxB [1]): 11.3 ± 2.3 nM | Kd (HMGB1-BoxA [4]): 4200 ± 400 nM

B1: HBP08–2 (peptide)
peptide: PRHYQMWIH
notes: Reconstituted in DMSO; also called G1P + E5Q; source: synthetic peptide, synthetized by Proteogenix (without TFA), purity about 99 %
Kd (HMGB1-BoxB [5]): 11.3 nM | Kd (HMGB1-BoxA [6]): 4200 ± 400 nM | Kd [7]: 28.1 ± 7 nM

PRHYMMWIH [HBP08–3]
Kd (HMGB1-BoxB [5]): 15.3 nM
